For series [1], the system named is d,d-mice. The series can be described thus: Cerebral Function Protection (recovery after rod dropped on vertex). The class given is in vivo, male. To be noted: 10 mg/kg oral, 30 min before, negative values given as "not effective". The method, then:
(Cerebral Function Protection) To each of male d,d-mice (16-24 g, 6 to 24 animals/group), each of testing compounds was orally administered in an amount of 10 mg/kg. After 30 minutes from the administration, a cylindrical rod made of bakelite (diameter: 1 cm, weight: 36 g) was free dropped with a level height of 40 cm on a vertex of the mouse to hypnotize the same, in accordance with a method disclosed by […] et al ["Tyaku-no-Ayumi (The Progress in Medicines)", 104 (4), 253, 1978]. Observations were continued until a recovering reflex from the lethargy and a spontaneous motion appear to determine a reduction ratio of time period on such behavior appearances.

Series [2] deals with ADP aggregation of platelets. The series can be described thus: Depression on Blood Platelet Aggregation, ADP. The series is classed as cell-based, Wister male rat. To be noted: in vitro, rat platelet plasma, read-out: depression Ratio to ADP; for inhibition at 10 µg/mL: final conc. 10 μg/ml, negative values given as "not effective". From the text: (§1) (Depression on Blood Platelet Aggregation) With use of a blood-plasma with excess platelets (obtained from a Wister male rat, about 250 g), a depressing effect of each testing compound to ADP and collagen aggregations was studied in vitro (3 to 5 samples/group).Results are shown in following Table 4.

Series [3] concerns collagen aggregation of platelets. Nature of the series: Depression on Blood Platelet Aggregation, collagen. The series is classed as cell-based, Wister male rat. To be noted: in vitro, rat platelet plasma, read-out: depression Ratio to Collagen; for inhibition at 10 µg/mL: final conc. 10 μg/ml.
Excerpt: as §1

The test system of series [4] is blood flow in vertebral artery. The series can be described thus: Cerebral Blood Flow Increase (blood flow in vertebral artery, electromagnetic rheometer). The class given is in vivo. To be noted: anesthetized mongrel dogs, 1.0 mg/dog into vertebral artery. The method, then:
(Cerebral Blood Flow Increase) Male and female mongrel dogs anesthetized with nembutal (sodium pentobarbital) were employed as subject and a blood flow in vertebral artery of those animals were measured with use of an electromagnetic rheometer. Each of testing compounds was administered to vertebral artery in a ratio of 1.0 mg/dog to determine a change in blood flow in the vertebral artery.

Series [5] deals with erythrocyte deformability. The series can be described thus: Acceleration on Erythrocyte Deformability (filtration-pressure method). To be noted: rats, 10 mg/kg oral, blood 1 h after administration, 0.1% erythrocyte suspension. The class given is in vivo, Wister male rats. As for the experimental part: (Acceleration on Erythrocyte Deformability) Each of testing compounds was orally administered to an amount of 10 mg/kg to Wister male rats (about 250 g, 5 animals/group). After one hour from the administration, blood sample was collected to prepare 0.1% erythrocyte suspension. An action of the compound to an erythrocyte deformability was studied in accordance with a filtration-pressure method to obtain results as shown in following Table 5.

For series [6], the system named is brain of rats with an essential hypertension (SHR). Nature of the series: Cerebral Metabolic Activation (cerebral ischemia by ligation of both common carotid arteries). The series is classed as in vivo, male). The following applies: 10 mg/kg oral 1 h after ligation, measured 5 h after ligation. The method, then:
(Cerebral Metabolic Activation) According to a known method [Fujishima et al, "Rinshou-to-Kenkyu (The Clinics and Studies)" 51, 3532, 1974], both common carotid arteries of rats with an essential hypertension (SHR, male, 250-350 g, 4 to 5 animals/group) were ligated to cause a cerebral ischemia. After one hour from the ligation, each of testing compounds was orally administered in an amount of 10 mg/kg and various parameters in brain were measured at the time having lapsed 5 hours from the ligation.

Series [7] in a line: in vivo. To be noted: mouse, male mice, oral, mortality after 72 hours.

For the molecule `CCN(CC)CCON=C1C[C@]2(CC)CCCN3CCc4c(n1c1ccccc41)[C@@H]32` [Example 2, (3α,16α)-eburnamenin-14(15H)-one O-[2-(N,N-diethylamino)ethyl]oxime], in series [1], the “Reduction ratio, time to appear spontaneous motion” value is reported as 48.7% and the “Reduction ratio, time to recover sit-up reflex” value was 54.3%. Moreover, the inhibition at 2 µg/mL in series [2] (final conc. 2 μg/ml) was found to be 5.7%. Moreover, in series [3] (final conc. 2 μg/ml), the inhibition at 2 µg/mL amounted to 73.8%. The “Increase in Blood Flow” value in series [4] was found to be 269.5%. For the same molecule, the “Reduction Rate in Filtering Pressure” value in series [5] was 6.0%. In series [6], the “Amount of ATP in brain” value amounted to 0.36 µmol/g, the Amount of Glucose in brain was determined as 1030 nmol/g and the “Amount of Lactic acid in brain” value came out at 4.62 µmol/g. The LD50 (in general, the dose expected to kill half of the subjects tested) at 72 h in series [7] turned out to be 611 mg/kg.
Turning to `CC[C@]12CCCN3CCc4c(n(c5ccccc45)C(=NOCCN(C)C)C1)[C@@H]32` [Example 3, (3α,16α)-eburnamenin-14(15H)-one O-[2-(N,N-dimethylamino)ethyl]oxime], in series [1], the “Reduction ratio, time to appear spontaneous motion” value was -11.3% and the “Reduction ratio, time to recover sit-up reflex” value is listed as -33.0%. Also, the inhibition at 10 µg/mL in series [2] was 5%. For the same molecule, the inhibition at 10 µg/mL in series [3] stood at 3.2%. For the same molecule, in series [4], the “Increase in Blood Flow” value is reported as 247.3%. In series [5], the “Reduction Rate in Filtering Pressure” value was determined as 10.2%. In series [6], the “Amount of ATP in brain” value is 0.18 µmol/g, the Amount of Glucose in brain came out at 740 nmol/g and the “Amount of Lactic acid in brain” value was determined as 7.01 µmol/g. Besides, the LD50 at 72 h in series [7] worked out at 700 mg/kg.
In the case of `CC[C@]12CCCN3CCc4c(n(c5ccccc45)C(=NOCCN4CCCC4)C1)[C@@H]32` [Example 4, (3α,16α)-eburnamenin-14(15H)-one O-[2-(1-pyrrolidinyl)ethyl]oxime], in series [1], the “Reduction ratio, time to appear spontaneous motion” value is -71.6% and the “Reduction ratio, time to recover sit-up reflex” value was -96.1%. Further, the inhibition at 10 µg/mL in series [2] was -10%. The inhibition at 10 µg/mL in series [3] was determined as 4.4%. In addition, the “Increase in Blood Flow” value in series [4] is listed as 260.6%. In addition, the “Reduction Rate in Filtering Pressure” value in series [5] turned out to be 9.3%. In series [6], the “Amount of ATP in brain” value was 0.25 µmol/g, the Amount of Glucose in brain is 896 nmol/g and the “Amount of Lactic acid in brain” value was determined as 6.34 µmol/g. For the same molecule, the LD50 at 72 h in series [7] was found to be 532 mg/kg.
As for `CC[C@]12CCCN3CCc4c(n(c5ccccc45)C(=NOCCN4CCN(c5ccccc5OC)CC4)C1)[C@@H]32` [Example 5, (3α,16α)-eburnamenin 14(15H)-one O-{2-[4-(2-methoxyphenyl)-1-piperazinyl]ethyl}oxime], in series [1], the “Reduction ratio, time to appear spontaneous motion” value turned out to be 6.9% and the “Reduction ratio, time to recover sit-up reflex” value was 0.4%. The inhibition at 10 µg/mL in series [2] came to 5.5%. In series [3], the inhibition at 10 µg/mL was determined as 9.3%. The “Increase in Blood Flow” value in series [4] is listed as 179.3%. Also, in series [5], the “Reduction Rate in Filtering Pressure” value was 13.2%. In series [6], the “Amount of ATP in brain” value came to 0.28 µmol/g, the Amount of Glucose in brain was found to be 802 nmol/g and the “Amount of Lactic acid in brain” value was determined as 5.50 µmol/g. For the same molecule, the LD50 at 72 h in series [7] came out at 660 mg/kg.
As to `CC[C@]12CCCN3CCc4c(n(c5ccccc45)C(=NOCC(O)CN4CCN(c5ccccc5OC)CC4)C1)[C@@H]32` (stereo partly drawn) [Example 6, (3α,16α)-eburnamenin-14(15H)-one O-{2-hydroxy-3-[4-(2-methoxyphenyl)-1-piperazinyl]propyl}oxime], in series [1], the “Reduction ratio, time to appear spontaneous motion” value is on record as 47.2% and the “Reduction ratio, time to recover sit-up reflex” value is given as 23.5%. For the same molecule, the inhibition at 10 µg/mL in series [2] turned out to be 6.3%. Moreover, in series [3], the inhibition at 10 µg/mL is 9.5%. For the same molecule, the “Increase in Blood Flow” value in series [4] is given as 357.7%. The “Reduction Rate in Filtering Pressure” value in series [5] came to 35.1%. Moreover, in series [6], the “Amount of ATP in brain” value stood at 0.32 µmol/g, the Amount of Glucose in brain came out at 1010 nmol/g and the “Amount of Lactic acid in brain” value came out at 4.95 µmol/g. The LD50 at 72 h in series [7] turned out to be 560 mg/kg.
As for `CC[C@]12CCCN3CCc4c(n(c5ccccc45)C(=NO)C1)[C@@H]32` [Reference Example, (3α,16α)-eburnamenin-14(15H)-one oxime], in series [1], the “Reduction ratio, time to appear spontaneous motion” value is listed as -5.3% and the “Reduction ratio, time to recover sit-up reflex” value is -12.4%. Moreover, in series [2], the inhibition at 10 µg/mL is -1.2%. Also, in series [3], the inhibition at 10 µg/mL worked out at 5.4%. Besides, in series [4], the “Increase in Blood Flow” value turned out to be 144.9%. Moreover, the “Reduction Rate in Filtering Pressure” value in series [5] is given as 8.3%. Further, in series [6], the “Amount of ATP in brain” value turned out to be 0.20 µmol/g, the Amount of Glucose in brain was determined as 592 nmol/g and the “Amount of Lactic acid in brain” value is 7.10 µmol/g. The molecule further showed an LD50 at 72 h in series [7] of 510 mg/kg.
As to `CCOC(=O)C1=C[C@]2(CC)CCCN3CCc4c(n1c1ccccc41)[C@@H]32` [vinpocetine, reference compound], the inhibition at 10 µg/mL in series [2] was -0.2%. In addition, the inhibition at 10 µg/mL in series [3] stood at 4%. In series [4], the “Increase in Blood Flow” value is reported as 261.4%. In addition, the “Reduction Rate in Filtering Pressure” value in series [5] was determined as 46.3%. Also, in series [6], the “Amount of ATP in brain” value was found to be 0.36 µmol/g, the Amount of Glucose in brain came out at 1120 nmol/g and the “Amount of Lactic acid in brain” value came to 7.00 µmol/g.

These data come from patent publication US4735943A, “Eburnamonine oxime derivatives, salts thereof, and pharmaceutical agents containing the same” (Sanwa Kagaku Kenkyusho Co., Ltd., priority 1984, dated 1988).
